Key:
SHP2 = biological target: T1, SHP2 (Homo sapiens, UniProt Q06124); assay: SHP2 allosteric inhibition assay (DiFMUP prompt fluorescence); type: biochemical; settings: 0.2 nM SHP2, 0.5 μM activating peptide, DiFMUP substrate
T1 sequence (Q06124 1-593): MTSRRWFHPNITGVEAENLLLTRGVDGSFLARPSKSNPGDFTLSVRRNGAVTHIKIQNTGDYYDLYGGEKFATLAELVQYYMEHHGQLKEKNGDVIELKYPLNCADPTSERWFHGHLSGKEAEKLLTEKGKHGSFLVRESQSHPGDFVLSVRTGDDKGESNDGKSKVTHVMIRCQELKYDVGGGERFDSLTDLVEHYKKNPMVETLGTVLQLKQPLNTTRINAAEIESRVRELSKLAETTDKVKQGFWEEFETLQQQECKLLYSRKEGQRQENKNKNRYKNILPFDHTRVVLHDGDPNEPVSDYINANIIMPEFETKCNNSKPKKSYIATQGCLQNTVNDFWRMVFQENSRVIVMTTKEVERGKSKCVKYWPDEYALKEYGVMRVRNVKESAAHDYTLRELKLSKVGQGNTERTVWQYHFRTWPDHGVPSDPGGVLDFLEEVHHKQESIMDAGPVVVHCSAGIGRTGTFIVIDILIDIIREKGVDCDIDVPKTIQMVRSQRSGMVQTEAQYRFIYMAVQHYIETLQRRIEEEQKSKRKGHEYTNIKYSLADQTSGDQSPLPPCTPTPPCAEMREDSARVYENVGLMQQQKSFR
Text: Without wishing to be bound by theory, SHP is allosterically activated through binding of bis-tyrosyl-phosphorylated peptides to its Src Homology 2 (SH2) domains. The latter activation step leads to the release of the auto-inhibitory interface of SHP2, which in turn renders the SHP2 protein tyrosine phosphatase (PTP) active and available for substrate recognition and reaction catalysis. The catalytic activity of SHP2 was monitored using the surrogate substrate DiFMUP in a prompt fluorescence assay format.
The phosphatase reactions were performed at room temperature in 96-well black polystyrene plate, flat bottom, non-binding surface (Corning, Cat #3650) using a final reaction volume of 100 μL and the following assay buffer conditions: 50 mM HEPES, pH 7.2, 100 mM NaCl, 0.5 mM EDTA, 0.05% P-20, 1 mM DTT.
The inhibition of SHP2 by RMC-3943, RMC-4550, and Compound C was monitored using an assay in which 0.2 nM of SHP2 was incubated with 0.5 μM of Activating Peptide 1 (sequence: H2N-LN(pY)IDLDLV(dPEG8)LST(pY)ASINFQK-amide) (SEQ ID NO: 1) or Activating Peptide 2 (sequence: H2N-LN(pY)AQLWHA(dPEG8)LTI(pY)ATIRRF-amide) (SEQ ID NO: 2). After 30-60 minutes incubation at 25° C., the surrogate substrate DiFMUP (Invitrogen, Cat #D6567) was added to the reaction and activity was determined by a kinetic read using a microplate reader (Envision, Perkin-Elmer or Spectramax M5, Molecular Devices). […]

[1] = tested on: ROS1 fusion-positive NSCLC; settings: patients harboring ROS1 fusion-positive NSCLC; cited from earlier work

Structure (SMILES)	IC50 (SHP2)	progression-free survival [1]
Nc1nc(N2CCC3(CCC[C@H]3N)CC2)cnc1Sc1ccnc(Cl)c1Cl [RMC-3943]	2.19 nM	
C[C@@H](Oc1cc(-c2cnn(C3CCNCC3)c2)cnc1N)c1c(Cl)ccc(F)c1Cl [crizotinib]		19 month
